Experimental findings from patent US20250059205A1, “Heterocyclic Compounds and Methods of Use” (AMGEN INC., priority 2021, published 2025) are described below.

pIC50: −log10 of the molar value. Read-outs that look alike come from different tables or passages of the source. Bounds are passed on as bounds.

In assay [1] the test system is Phosphorylation of ERK1/2 in A-427 cells. The assay is described as follows: Phospho-ERK1/2 MSD Assay (A-427 cells). It is filed as cell-based. To be noted: Homo sapiens, 2 h treatment, read-out: p-ERK (A427 cells) IC50. The method, boiled down:
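ERK1/2 phosphorylation measured by Meso Scale whole-cell lysate assay after A-427 cells were exposed to a titration of compound for 2 h at 37 °C.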

For assay [2], the target named is GDP-bound KRAS protein (aa 1-169), containing both G12D and C118A amino acid substitutions (Homo sapiens, UniProt P01116, C118A/G12D). Kind of assay: KRAS G12D Coupled Nucleotide Exchange Assay. It is filed as biochemical. Conditions: 2 h compound pre-incubation. Here is the method:
Following compound pre-incubation, purified SOS protein (aa 564-1049) and GTP (Roche 10106399001) were added to the assay wells and incubated for an additional 30 min. […] The assay plates were then read on a PerkinElmer EnVision Multilabel Reader, using AlphaScreen® technology, and data were analyzed using a 4-parameter logistic model to calculate IC50 values.

For assay [3], the target named is His-tagged KRAS G12D protein (Homo sapiens, UniProt P01116, G12D). Kind of assay: KRAS G12D TR-FRET Assay. The format is binding. For orientation: TR-FRET usually uses a lanthanide donor and a delayed reading to cut background.
His-tagged KRAS G12D protein, sequence (P01116 1-188 isoform P01116-2 G12D): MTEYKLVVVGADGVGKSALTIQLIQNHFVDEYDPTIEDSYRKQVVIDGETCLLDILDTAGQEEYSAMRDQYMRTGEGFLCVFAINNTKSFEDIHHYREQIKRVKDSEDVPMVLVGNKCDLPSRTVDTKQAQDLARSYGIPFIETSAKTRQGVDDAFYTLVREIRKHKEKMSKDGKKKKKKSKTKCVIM
Assay [4] concerns Phosphorylation of ERK1/2 in AsPC-1 cells. Kind of assay: Phospho-ERK1/2 MSD Assay (AsPC-1 cells). The format is cell-based. To be noted: Homo sapiens, read-out: p-ERK (AsPC-1 cells) IC50. The method, boiled down:
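Read-out: MSD electrochemiluminescent detection of phosphorylated ERK1/2 in whole-cell lysates, fitted to a 4-parameter logistic curve for IC50. Prior to lysis, AsPC-1 cells (25,000 per well) received a 2 h compound dose-response at 37 °C.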

GDP-bound KRAS protein (aa 1-169), containing both G12D and C118A amino acid substitutions, sequence (P01116 1-169 isoform P01116-2 G12D/C118A): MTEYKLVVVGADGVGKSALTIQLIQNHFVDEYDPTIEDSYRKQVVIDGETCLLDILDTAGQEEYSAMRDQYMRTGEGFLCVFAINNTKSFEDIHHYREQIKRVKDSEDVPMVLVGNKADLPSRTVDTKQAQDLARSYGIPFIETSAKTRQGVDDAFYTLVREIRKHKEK

As a reminder, the pIC50 is −log10 of the IC50, conventionally taken in molar units. In the case of `Cc1c(-c2cc(O)cc3ccc(F)c(F)c23)ccc2c(N3C[C@@H]4CC[C@H]3CN4)nc(OC[C@@]34CCCN3C[C@H](F)C4)nc12` [Example 166, 4-(4-((1S,4S)-2,5-diazabicyclo[2.2.2]octan-2-yl)-2-(((2R,7aS)-2-fluorotetrahydro-1H-pyrrolizin-7a(5H)-yl)methoxy)-8-methylquinazolin-7-yl)-5,6-difluoronaphthalen-2-ol], the pIC50 in assay [1] (A-427, 2 h) is 5.38; in assay [3] it was 7.03; in assay [4] (ASPC1, 2 h, 2 hours treatment), 5.82. Further, the “Avg 2 h Coupled Exchange IC50” value in assay [2] was found to be 82 nM.

Regarding `CN1CCC[C@H]1CCOc1nc(N2[C@@H]3CNC[C@H]2COC3)c2ccc(-c3cc(O)cc4ccccc34)c(F)c2n1` [Example 9, 4-(4-((1R,5S)-3-oxa-7,9-diazabicyclo[3.3. 1]nonan-9-yl)-8-fluoro-2-(2-((S)-1-methylpyrrolidin-2-yl)ethoxy)quinazolin-7-yl)naphthalen-2-ol], the pIC50 is less than 4.60 in assay [1] (A-427, 2 h); 6.34 in assay [3]; less than 4.60 in assay [4] (ASPC1, 2 h, 2 hours treatment). Also, the “Avg 2 h Coupled Exchange IC50” value in assay [2] is 125 nM.

With `CCC(O)(CC)COc1nc(N2C[C@H]3CC[C@@H](C2)N3)c2cc(F)c(-c3cc(O)cc4ccc(F)c(F)c34)c(F)c2n1` [Example 124, 4-(4-((1R,5S)-3,8-diazabicyclo[3.2.1]octan-3-yl)-2-(2-ethyl-2-hydroxybutoxy)-6,8-difluoroquinazolin-7-yl)-5,6-difluoronaphthalen-2-ol], the pIC50 in assay [1] (A-427, 2 h) is 5.36; in assay [3], 7.47; in assay [4] (ASPC1, 2 h, 2 hours treatment), 5.62. Further, in assay [2], the “Avg 2 h Coupled Exchange IC50” value turned out to be 19 nM.

With `Oc1cc(-c2ccc3c(N4C[C@H]5C[C@@H](C4)N5)nc(OC[C@@]45CCCN4C[C@H](F)C5)nc3c2F)c2ccccc2c1` [Example 4, 4-(4-((1R,5S)-3,6-diazabicyclo[3.1. 1]heptan-3-yl)-8-fluoro-2-(((2R,7aS)-2-fluorotetrahydro-1H-pyrrolizin-7a(5H)-yl)methoxy)quinazolin-7-yl)naphthalen-2-ol], the pIC50 is 6.53 in assay [1] (A-427, 2 h); 8.30 in assay [3]; 5.91 in assay [4] (ASPC1, 2 h, 2 hours treatment). The “Avg 2 h Coupled Exchange IC50” value in assay [2] came to 7 nM.

Regarding `N#Cc1cccc2cc(O)cc(-c3c(F)cc4c(N5C[C@H]6CC[C@@H](C5)N6)nc(OC[C@@]56CCCN5C[C@H](F)C6)nc4c3F)c12` [Example 204, 8-(4-((1R,5S)-3,8-Diazabicyclo[3.2.1]octan-3-yl)-6,8-difluoro-2-(((2R,7aS)-2-fluorotetrahydro-1H-pyrrolizin-7a(5H)-yl)methoxy)quinazolin-7-yl)-6-hydroxy-1-naphthonitrile], the pIC50 is 7.59 in assay [1] (A-427, 2 h); 8.70 in assay [3]; 7.01 in assay [4] (ASPC1, 2 h, 2 hours treatment). Besides, in assay [2], the “Avg 2 h Coupled Exchange IC50” value came out at 3 nM.

With `Fc1cc2c(N3[C@@H]4CC[C@H]3CNC4)nc(OC[C@@]34CCCN3C[C@H](F)C4)nc2c(F)c1-c1cncc2cccc(Cl)c12` [Example 101, 4-((1R,5S)-3,8-Diazabicyclo[3.2.1]octan-8-yl)-7-(5-chloroisoquinolin-4-yl)-6,8-difluoro-2-(((2R,7aS)-2-fluorotetrahydro-1H-pyrrolizin-7a(5H)-yl)methoxy)quinazoline], the pIC50 was 5.53 in assay [1]; 7.15 in assay [3]; 5.77 in assay [4] (ASPC1, 2 hours treatment). Also, the “Avg 2 h Coupled Exchange IC50” value in assay [2] worked out at 35 nM.

For the molecule `CCc1c(F)ccc2cc(O)cc(-c3c(F)cc4c(N5C[C@@H]6CC[C@H]5CN6)nc(OC[C@@]56CCCN5C[C@H](F)C6)nc4c3F)c12` [Example 93, 4-(4-((1S,4S)-2,5-diazabicyclo[2.2. 2]octan-2-yl)-6,8-difluoro-2-(((2R,7aS)-2-fluorotetrahydro-1H-pyrrolizin-7a(5H)-yl)methoxy)quinazolin-7-yl)-5-ethyl-6-fluoronaphthalen-2-ol], the pIC50 in assay [1] (A-427, 2 h) was 8.22; in assay [3] it was 8.30; in assay [4] (ASPC1, 2 h, 2 hours treatment), 8.05. For the same molecule, the “Avg 2 h Coupled Exchange IC50” value in assay [2] stood at 6 nM.

For the molecule `C#Cc1cccc2cc(O)cc(-c3ccc4c(N5C[C@H]6CC[C@@H](C5)N6)nc(OC[C@@]56CCCN5C[C@H](F)C6)nc4c3C)c12` [Example 191, 4-(4-((1R,5S)-3,8-diazabicyclo[3.2.1]octan-3-yl)-2-(((2R,7aS)-2-fluorotetrahydro-1H-pyrrolizin-7a(5H)-yl)methoxy)-8-methylquinazolin-7-yl)-5-ethynylnaphthalen-2-ol], the pIC50 in assay [1] (A-427, 2 h) is 8.40; in assay [3] it was 8.52; in assay [4] (ASPC1, 2 h, 2 hours treatment), 7.42. For the same molecule, the “Avg 2 h Coupled Exchange IC50” value in assay [2] worked out at 4 nM.

With `Nc1cc(-c2c(F)cc3c(N4C[C@H]5CC[C@@H](C4)N5)nc(OC[C@@]45CCCN4C[C@H](F)C5)nc3c2F)c2ccccc2c1` [Example 116, 4-(4-((1R,5S)-3,8-diazabicyclo[3.2.1]octan-3-yl)-6,8-difluoro-2-(((2R,7aS)-2-fluorotetrahydro-1H-pyrrolizin-7a(5H)-yl)methoxy)quinazolin-7-yl)naphthalen-2-amine], the pIC50 in assay [1] (A-427, 2 h) is 6.60; in assay [3] it was 7.52; in assay [4] (ASPC1, 2 h, 2 hours treatment), 6.34. Besides, the “Avg 2 h Coupled Exchange IC50” value in assay [2] came out at 5 nM.

Regarding `Oc1cc(-c2ccc3c(N4C[C@H]5CC[C@@H](C4)N5)nc(OC[C@]45CCCN4C[C@H](F)C5)nc3c2F)c2ccccc2c1` [Example 44, 4-(4-((1R,5S)-3,8-diazabicyclo[3.2. 1]octan-3-yl)-8-fluoro-2-(((2R,7aR)-2-fluorotetrahydro-1H-pyrrolizin-7a(5H)-yl)methoxy)quinazolin-7-yl)naphthalen-2-ol], the negative logarithm of the IC50 (pIC50) in assay [1] (A-427, 2 h) was 7.72; in assay [3] it was 8.70; in assay [4] (ASPC1, 2 h, 2 hours treatment), 6.94. For the same molecule, the “Avg 2 h Coupled Exchange IC50” value in assay [2] worked out at 2 nM.

With `Oc1cc(-c2ccc3c(N4C[C@@H]5CC[C@H]4CN5)nc(OC[C@@]45CCCN4C[C@H](F)C5)nc3c2F)c2ccccc2c1` [Example 45, 4-(4-((1S,4S)-2,5-diazabicyclo[2.2. 2]octan-2-yl)-8-fluoro-2-(((2R,7aS)-2-fluorotetrahydro-1H-pyrrolizin-7a(5H)-yl)methoxy)quinazolin-7-yl)naphthalen-2-ol], the pIC50 in assay [1] (A-427, 2 h) was 7.60; in assay [3], 8.40; in assay [4] (ASPC1, 2 h, 2 hours treatment), 6.72. Moreover, the “Avg 2 h Coupled Exchange IC50” value in assay [2] is 2 nM.

For the molecule `CCc1c(F)ccc2cc(O)cc(-c3c(O)cc4c(N5[C@@H]6CC[C@H]5CNC6)nc(OC[C@@]56CCCN5C[C@H](F)C6)nc4c3F)c12` [Example 200, 4-((1R,5S)-3,8-diazabicyclo[3.2.1]octan-8-yl)-7-(8-ethyl-7-fluoro-3-hydroxynaphthalen-1-yl)-8-fluoro-2-(((2R,7aS)-2-fluorotetrahydro-1H-pyrrolizin-7a(5H)-yl)methoxy) quinazolin-6-ol], the pIC50 in assay [1] (A-427, 2 h) is 7.96; in assay [3] it was 8.40; in assay [4] (ASPC1, 2 h, 2 hours treatment), 7.27. Besides, the “Avg 2 h Coupled Exchange IC50” value in assay [2] turned out to be 4 nM.

`Nc1cc2ccccc2c(-c2ccc3c(N4CC5CCC(C4)N5)nc(OC[C@@]45CCCN4C[C@H](F)C5)nc3c2F)n1` [Example 220]: the pIC50 in assay [1] (A-427, 2 h) is 5.54; in assay [3], 7.22; in assay [4] (ASPC1, 2 h, 2 hours treatment) it was 5.36. Moreover, the “Avg 2 h Coupled Exchange IC50” value in assay [2] came out at 22 nM.

Take `C=C(C)c1ccc2[nH]ncc2c1-c1ccc2c(N3C[C@H]4CC[C@@H](C3)N4)nc(OC[C@@]34CCCN3C[C@H](F)C4)nc2c1F` [Example 198, 4-((1R,5S)-3,8-Diazabicyclo[3.2.1]octan-3-yl)-8-fluoro-2-(((2R,7aS)-2-fluorotetrahydro-1H-pyrrolizin-7a(5H)-yl)methoxy)-7-(5-(prop-1-en-2-yl)-1H-indazol-4-yl)quinazoline]: the pIC50 is 5.28 in assay [1] (A-427, 2 h); 7.38 in assay [3]; 5.53 in assay [4] (ASPC1, 2 h, 2 hours treatment). Moreover, in assay [2], the “Avg 2 h Coupled Exchange IC50” value came to 18 nM.

Regarding `Cc1c(-c2cc(O)cc3ccc(F)c(F)c23)ccc2c(N3C[C@H]4CC[C@@H](C3)N4)nc(OC[C@@]34CCCN3C[C@H](F)C4)nc12` [Example 97, 4-(4-((1R,5S)-3,8-diazabicyclo[3.2. 1]octan-3-yl)-2-(((2R,7aS)-2-fluorotetrahydro-1H-pyrrolizin-7a(5H)-yl)methoxy)-8-methylquinazolin-7-yl)-5,6-difluoronaphthalen-2-ol], the negative-log IC50 (pIC50) in assay [1] (A-427, 2 h) is 7.16; in assay [3], 8.22; in assay [4] (ASPC1, 2 h, 2 hours treatment) it was 6.75. In addition, the “Avg 2 h Coupled Exchange IC50” value in assay [2] was 6 nM.

On to `C#Cc1cccc2cccc(-c3c(F)cc4c(N5[C@@H]6CC[C@H]5CNC6)nc(OC[C@@]56CCCN5C[C@H](F)C6)nc4c3F)c12` [Example 100, 4-((1R,5S)-3,8-Diazabicyclo[3.2.1]octan-8-yl)-7-(8-ethynylnaphthalen-1-yl)-6,8-difluoro-2-(((2R,7aS)-2-fluorotetrahydro-1H-pyrrolizin-7a(5H)-yl)methoxy)quinazoline], for which the pIC50 in assay [1] (A-427, 2 h) is 6.02; in assay [3], 8.10; in assay [4] (ASPC1, 2 h, 2 hours treatment), 6.18. Further, in assay [2], the “Avg 2 h Coupled Exchange IC50” value came out at 6 nM.
